Measured values reported in paper PMC12040169 (PLOS Biology, 2025).

Assay: in vitro
Conditions: human, hela cells
[1] = % viability, bulk resorufin, single well

| Structure (SMILES) | viability at 28.5 h, 10 µM (% viability) | also measured |
| --- | --- | --- |
| O=C(Nc1ccc(F)cc1)c1ccccc1NS(=O)(=O)c1cc(Br)c(Cl)s1 [CBK045405] | 92.8% | – |
| COc1ccc(CCNC(=O)c2ccccc2N(C)S(C)(=O)=O)cc1 [CBK266833] | 104% | – |
| CCC#CC(=O)Nc1cncc(OC2CCNCC2)n1 [CBK026731T] | 93% | – |
| CC(C)c1nc(NCCc2nnc3n2CCCC3)nc(N(C)C)n1 [CBK306426] | 112% | – |
| C=CCn1c(Cc2csc(NC(=O)c3ccc(OC)c(OC)c3)n2)n[nH]c1=S [CBK295324] | 102% | – |
| O=C(O)CCc1nn2c3ccccc3nc2n(-c2ccccc2)c1=O [CBK267520] | 90.6% | – |
| CC(C)(C)OC(=O)N1CCN(c2cncc(NCc3ccccc3)n2)CC1 [CBK000154] | 112% | – |
| Clc1cncc(OCCCCOc2ccccc2)n1 [CBK176018] | 108% | – |
| COc1ccc(CC(=O)N2CCNC(=O)C2Cc2ccccc2-c2ccccc2)cc1OC (centres unmarked) [CBK285827] | 102% | – |
| CC#CC1CCCC2N(c3ccccc3)CCN12 (centres unmarked) [CBK028191] | 119% | – |
| Cc1cc(C)c(C(=O)NC2CCN(c3ncccc3C#N)CC2)c(=O)[nH]1 [CBK306709] | 110% | – |
| CC(C)c1ccc(S(=O)(=O)NCC(C)(C)CO)cc1 [CBK043547] | 110% | – |
| O=C(Cn1c(=O)oc2ccccc21)Nc1cccc(C(=O)O)c1 [CBK267641] | 97.4% | – |
| O=C(/C=C/c1ccc(N2N=N2)cc1)/C=C/c1ccc(N2N=N2)cc1 [CBK261638] | – | viability at 28.5 h, 10 µM: 105% |
| Cc1cc(S(=O)(=O)NCCn2nc(C)c(C)c2C)ccc1F [CBK281382] | 71.9% | – |
| COc1cc(/C=N/c2ccc3oc(-c4ccc(C(C)(C)C)cc4)nc3c2)ccc1OC(=O)c1ccc(Cl)cc1Cl [CBK261238] | 104% | – |
| O=C(c1ccc(CCN2CCCC2)nc1)N1CCN(CCc2ccccc2)CC1 [CBK200227] | 91.6% | – |
| Cc1cc(NC(=O)c2ccccc2)n(-c2nc(C)c(C)c(=O)[nH]2)n1 [CBK287655] | 105% | – |
| Cc1nn(CC(=O)NC(C)(C)C)c(=O)c2cc3sccc3n12 [CBK284021] | 80.9% | – |
| CN(C)C(=O)CN1CCC2(C/C=C/COc3ccccc3C(=O)NC[C@@H](Cc3ccccc3)NC2=O)CC1 [CBK292185] | 107% | – |
| CCn1cc(CN2CCCN(C(=O)c3ccc(Cl)cn3)CC2)cn1 [CBK304760] | 84.3% | – |
| COc1ccc(C2=NN(c3ccc(C(=O)O)cc3)C(c3ccc(OC)c(OC)c3)C2)cc1 (centres unmarked) [CBK296134] | 111% | – |
| CN1CCN(c2ccccc2NC(=S)NC(=O)c2ccc(N3CCCCC3)c([N+](=O)[O-])c2)CC1 [CBK268520C] | 121% | – |

| Structure (SMILES) | viability at 28.5 h, 10 µM (% viability) | also measured |
| --- | --- | --- |
| Cc1cc(C=C2C(=O)NC(=O)NC2=O)c(C)n1C1CCCCC1 [CBK263426] | – | viability at 28.5 h, 10 µM [1]: 93.6% |
| COc1ccc(CCNC(=S)n2cc(C)cn2)cc1OC [CBK267001] | 89% | – |
| CCc1nn(CC(=O)N2CCCC2)c(=O)c2cc3ccsc3n12 [CBK284120] | 84.2% | – |
| CCOc1ccc(Cl)cc1CN(C)C(=O)NC(c1ncnn1C)C(C)C (centres unmarked) [CBK307110] | 80.5% | – |
| Cc1ccc(-c2noc([C@@H]3Cc4[nH]cnc4CN3C(=O)c3cccs3)n2)cc1 [CBK288957] | 82.2% | – |
| S=c1[nH]nc(-c2ccc(Cl)cc2)n1-c1cccnc1 [CBK086427] | 83.6% | – |
| COc1cnc(-c2cc(Cl)cc(Cl)c2)c(NC(=O)c2ccsc2)n1 [CBK145340] | 87.8% | – |
| Cc1ccc(C(C)C)c(OCC(=O)NS(=O)(=O)c2ccc(Br)cc2)c1 [CBK268719] | 101% | – |
| COC(=O)c1c(NC(=O)COc2ccccc2C(C)C)sc2c1CCCC2 [CBK266722] | 93.5% | – |
| Cc1nnc2sc(-c3cccc(NC(=S)NC(=O)c4cc5ccccc5o4)c3)nn12 [CBK267282] | 87.4% | – |
| O=C(CCCc1nc(-c2ccccc2Cl)no1)NCc1cccnc1 [CBK269516] | 77.8% | – |
| CC(Oc1ccccc1)C(=O)Nc1ccc(C(=O)O)cc1 (centres unmarked) [CBK287154] | 102% | – |
| CC1(C)C=Cc2cc(/C(N)=N/O)ccc2O1 [CBK006095] | 96.2% | – |
| O=C(Cc1ccc(Cl)c(Cl)c1)N1CCCC2(CCN(C(=O)c3ccoc3)C2)C1 (centres unmarked) [CBK131619] | 87.4% | – |
| O=C1NCCN1CCOc1nccnc1/C=C/c1ccccc1 [CBK106879] | 96% | – |
| COc1ccc(CCNC(=O)NS(=O)(=O)c2ccc(C)cc2)cc1OC [CBK300510] | 88% | – |
| Cc1ccccc1-c1nnc(NC(=O)c2ccc(N3C(=O)CCC3=O)cc2)s1 [CBK287332] | 85.9% | – |
| Nc1ccc(CCNC(=O)c2cnc(-c3ccc(Cl)cc3)c(-c3ccco3)c2)cc1 [CBK036686] | 99.7% | – |
| O=C(CCc1ccccc1)N1CCCC1c1n[nH]cc1-c1ccncc1 (centres unmarked) [CBK283436] | 91.4% | – |
| Cc1ccc(NC(=O)N2CCC(C(=O)O)CC2)cc1 [CBK156077] | 105% | – |
| COc1ccc(CNC(=O)N2CCN(c3cc(C(F)(F)F)ccn3)CC2)cc1OC [CBK162344] | 82.5% | – |
| CCC1CCCCN1C(=O)c1ccc(-c2ccccc2)s1 (centres unmarked) [CBK074215] | 96.5% | – |
| Cc1cccc(-n2ncc3c(NCCCN4CCOCC4)ncnc32)c1 [CBK265710] | 91.2% | – |

| Structure (SMILES) | viability at 28.5 h, 10 µM (% viability) | also measured |
| --- | --- | --- |
| CN1CCN(c2ccc(-c3cncc(NCCc4ccccn4)n3)cn2)CC1 [CBK037135] | 87.2% | – |
| O=C(c1ccccc1C(F)(F)F)N1CCC(n2c(=O)[nH]c3ccccc32)CC1 [CBK149706] | 97% | – |
| CCNc1cc(-c2ccco2)ncn1 [CBK090879] | 108% | – |
| O=C(NCc1ccccc1)c1cccc(NC(=O)c2cc(-c3ccccn3)nc3ccc(Cl)cc23)c1 [CBK267768] | 94% | – |
| CN(C)CC1CN(C(=O)Cc2ccccc2F)Cc2ccccc2O1 (centres unmarked) [CBK285327] | 90.4% | – |
| Cc1nn(CC(=O)NC2CC2)c(=O)c2cc3sccc3n12 [CBK284047] | 94.9% | – |
| Cc1ccc(CSCCNS(=O)(=O)c2cccc([N+](=O)[O-])c2)cc1 [CBK267864] | 108% | – |
| CC1CCN(S(=O)(=O)c2ccc(Cl)c(C(=O)Nc3ccc(C(=O)O)cc3)c2)CC1 [CBK265170] | 111% | – |
| COc1cccc(-c2nc(-c3ccc4[nH]c(=O)[nH]c4c3)cs2)c1OC [CBK298271] | 108% | – |
| OCc1ccccc1-c1cn2ccnc2c(Nc2ccccc2)n1 [CBK037999] | 108% | – |
| Cc1cc(C)c(NC(=O)CSc2n[nH]c(=O)n2C2CC2)c(C)c1 [CBK295598] | 95% | – |
| Cc1nn(C)c(C)c1CN(C)C(=O)C(C)Cn1cc(Cl)cn1 (centres unmarked) [CBK282187] | 92.8% | – |
| CC(=O)NC(c1ccccn1)C1CCCN(C(=O)C2CCCCC2)C1 (centres unmarked) [CBK285031] | 109% | – |
| NNc1ccc(/C=C/c2ccc(NN)cc2S(=O)(=O)O)c(S(=O)(=O)O)c1 [CBK278163N] | 91.1% | – |
| Cc1ccccc1CNCCNCC(C)O (centres unmarked) [CBK268718C] | 95.9% | – |
| O=C(c1cn(-c2cc(Nc3ccccc3)ncn2)cn1)N1CCOCC1 [CBK288610] | 103% | – |
| CC(O)CN1CCN(c2nc(-c3ccncc3)nc3c2CCC3)CC1 (centres unmarked) [CBK304971] | 90.3% | – |
| COc1cccc(CC(=O)N2CCC(Cc3ccccc3-c3cccs3)(C(N)=O)CC2)c1 [CBK285908] | 112% | – |
| CC(=O)Nc1cccc(NC(=O)CSc2ncnc3c2nnn3C)c1 [CBK287829] | 91.9% | – |
| COc1cc(CNC(=O)N(CCc2ccccc2)Cc2ccccc2)cc(OC)c1OC [CBK155329] | 110% | – |
| CC1CN(Cc2ccccc2)CCN1c1cnccn1 (centres unmarked) [CBK013684] | 102% | – |
| CCC(C)(C)C1CCc2c(sc(NC(=O)CN3CCOCC3)c2C#N)C1 (centres unmarked) [CBK270048] | 89.4% | – |
| O=C(CC(CN1CCN(CC(=O)N2CCCC2)CC1)C(=O)O)Nc1ccccc1 (centres unmarked) [CBK286844] | 87.9% | – |

| Structure (SMILES) | viability at 28.5 h, 10 µM (% viability) | also measured |
| --- | --- | --- |
| Cc1ccc(OC(C)C(=O)N(C)c2ccccc2)cc1 (centres unmarked) [CBK268645] | 111% | – |
| CC1(C)CC(=O)c2c(O)cc(OCC(=O)c3ccc(Cl)c(Cl)c3)cc2O1 [CBK267573] | 89.1% | – |
| Cc1nc(NCc2ccc(C(F)(F)F)cc2)nc(N2CCN(C)CC2)n1 [CBK023866] | 112% | – |
| O=C(O)C1CCCN1C(=O)NCc1c(Cl)cccc1Cl (centres unmarked) [CBK161383] | 88.1% | – |
| O=C(Nc1nnc(C2=COCCO2)o1)c1ccc(-c2ccccc2)cc1 [CBK287407] | 84.5% | – |
| [2H]C(C(=O)NCc1ccc2c(c1)CCC2)n1cc(-c2ccc(CN3CCC(C)CC3)cc2)nn1 (centres unmarked) [CBK166081-L1] | 97.7% | – |
| CCNC(=O)Nc1nc2cccnc2cc1-c1ccc(OC)c(C)c1 [CBK081241] | 94.6% | – |
| C(=N/OCc1ccccc1)/c1c[nH]c2ccccc12 [CBK168629] | 79.3% | – |
| COc1ccc2c(c1)COC1(CCN(C(=O)NC(=O)c3ccccc3)CC1)O2 [CBK060804] | – | viability at 28.5 h, 10 µM [1]: 95.7% |
| O=c1sn(C2CCCCC2)c(=O)n1Cc1ccc(F)cc1 [CBK113604] | 90.8% | – |
| O=C(O)CC1S/C(=N/N=C/c2ccco2)NC1=O (centres unmarked) [CBK261371] | 93.7% | – |
| COc1ccc2nc(NCc3ccccc3)sc2c1 [CBK287485] | 66.8% | – |
| c1ccc(-c2cc3nccc(-c4ccccc4)n3n2)cc1 [CBK287871] | 93.7% | – |
| CN1CCN(c2ccccc2NC(=S)NC(=O)c2ccco2)CC1 [CBK267909] | 85.2% | – |
| O=C(CCCOc1ccc(Cl)cc1)n1ccn(CCc2cccs2)c1=O [CBK106614] | 104% | – |
| O=C(NCc1nc2ccccc2[nH]1)c1ccc2[nH]ccc2c1 [CBK149079] | 89% | – |
| COc1ccc(CC(=O)N2CCCC2c2nnc3ccccn23)cc1 (centres unmarked) [CBK304719] | 117% | – |
| O=S(=O)(NCc1cccc(F)c1)c1ccc(OC(F)(F)F)cc1 [CBK043379] | 88.5% | – |
| N=C(N)SCCCCCSC(=N)N [CBK278314B] | 88.2% | – |
| O=C1COc2ccccc2C/C=C/C[C@H]2CN(C(=O)CN3CCCCCC3=O)CC[C@H]2N1 [CBK292116] | 89.7% | – |
